In the assay the test system is proinsulin epitope C20-A1-specific CD4+ T cells. Put plainly: FACS quantification of CD4+ T cells responding to proinsulin epitope C20-A1 stimulation in PBMCs of T1D patients treated with IMP or placebo. Format: in vivo, human. The following applies: visits 3 to 6 (impact of administrations 3 to 6). As for the experimental part:
84 HLA DR4+ adult participants are randomly assigned (1:1:1) to one of the three treatment arms: placebo, investigational medicinal product (IMP) 450 μg and IMP 1350 μg (=the main study). All participants receive 6 administrations of IMP or placebo with a 2-week interval between each administration. At 24 weeks participants receive a boost injection. While treated participants receive a boost administration equivalent to the dose they have been randomized to, placebo participants receive a placebo boost. The participants were followed up to 48 weeks (FIG. 1).
Treatment consists of six administrations (separated by 14 days) of the IMP or the placebo by SC route. […]
Patient blood samples collected at six time points (visit V-1 or the baseline which was prior to immunization, and visits V2 to V6 which were two weeks after 2, 3, 4, 5 or 6 injections respectively) was used to quantify CD4+ T cells responding to proinsulin epitope C20-A1 stimulation. […]
Fluorescent activated cell sorting (FACS) analysis was performed to quantify CD4+ T cells that respond to proinsulin epitope stimulation. […] In a proinsulin epitope C20-A1-stimulated sample, the “net % of responding CD4+ T cells” was calculated as the % of CD4+ T cells with an effector or regulatory phenotype in the stimulated sample minus the % of CD4+ T cells with effector or regulatory phenotype in the corresponding unstimulated sample. […]

Consider HCPYCSLQPLALEGSLQKRG [IMP], for which the “net % of responding CD4+ T cells in IMP treated as compared to Placebo treated patients at individual time points” value was “trend of greater net % of responding CD4+ T cells”.
